We go through ten compounds from ChEMBL document CHEMBL1201862, “PubChem BioAssay data set” (2004).

Among the test systems are LXFL 529; XF498; M14; SNB-78; SF-268; DMS-114; U-251; SR; NCI-H226; EKVX; NCI-H23; SK-OV-3; HOP-18; HT-29; SK-MEL-2; SK-MEL-5; M19-MEL; MCF7; NCI/ADR-RES.
Assay in all cases: DTP human tumour cell line panel, 48 h

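Values below derive from 48-hour exposures of cells grown in 96-well plates, with endpoints linearly interpolated between the two concentrations bracketing the appropriate inhibition level. Here, GI50 denotes the concentration required for 50% inhibition of growth.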 Active and inactive are the calls of the source. No stated cut-off is given here; in the data, active = GI50 up to about 1.1 µM and inactive = higher.

The term GI50 denotes the concentration at which growth is held to half of that of the control. As to `CC1(C)C(O)C[C@@H](O)[C@@]2(C)C1CC[C@]1(C)C2C[C@@H](O)[C@@H]2C([C@@]3(C)CC[C@@H](C(C)(C)O)O3)CCC21C` (some centres undefined), the GI50 is 10.2 µM (inactive) with LXFL 529; 18.2 µM (inactive) in the experiment with XF498; 13.8 µM (inactive) with M14; 21.3 µM (inactive) in the experiment on SNB-78; 17.2 µM (inactive) in the experiment on SF-268; 15.5 µM (inactive) in the experiment on DMS-114. For the same compound, the GI50 was 12.9 µM (inactive) with U-251; 8.83 µM (inactive) in the experiment with SR; 19.5 µM (inactive) in the experiment with NCI-H226; 24.9 µM (inactive) with EKVX; 17.4 µM (inactive) in the experiment with NCI-H23; 15.9 µM (inactive) in the experiment with SK-OV-3. Further, the GI50 in the experiment on HOP-18 is 16.8 µM (inactive); with HT-29, 17.6 µM (inactive); with SK-MEL-2, 14.7 µM (inactive); in the experiment with SK-MEL-5 it was 10.4 µM (inactive).
With `CSc1nc(NC2OCC(O)C(O)C2O)c(N)c(=O)[nH]1` (centres undefined), the GI50 in the experiment on M19-MEL, with MCF7, in the experiment with SNB-78, with SF-268, in the experiment on DMS-114 and with U-251 was > 100 µM (inactive) throughout. In addition, the GI50 in the experiment with NCI-H226, with EKVX, in the experiment on NCI-H23, with SK-OV-3, in the experiment with HOP-18 and in the experiment on HT-29 was > 100 µM (inactive) in each case. Moreover, the GI50 with SK-MEL-2, in the experiment on SK-MEL-5 and with NCI/ADR-RES was > 100 µM (inactive) throughout.
In the case of `CCCCOc1ccc(OCCCCCCCCCC[N+](C)(C)C)cc1`, the GI50 is 1.71 µM (inactive) with XF498; 3.44 µM (inactive) in the experiment with MCF7; 2.38 µM (inactive) with SNB-78; 3.13 µM (inactive) in the experiment with SF-268; 2.05 µM (inactive) in the experiment on DMS-114; 1.91 µM (inactive) with U-251. Further, the GI50 in the experiment on NCI-H226 was 4.26 µM (inactive); in the experiment with EKVX, 15.5 µM (inactive); with NCI-H23 it was 1.95 µM (inactive); in the experiment on SK-OV-3 it was 2.89 µM (inactive); in the experiment on HOP-18 it was 3.42 µM (inactive); with HT-29 it was 0.452 µM (active). The GI50 was 2.01 µM (inactive) in the experiment on SK-MEL-2, 1.91 µM (inactive) in the experiment on SK-MEL-5 and 58.9 µM (inactive) in the experiment on NCI/ADR-RES.
For `OCCNCN(CNCCO)c1nc(N(CNCCO)CNCCO)nc(N(CNCCO)CNCCO)n1`, the GI50 in the experiment with M19-MEL is 0.0405 µM (active); in the experiment on LXFL 529, 0.04 µM (active); in the experiment with XF498, > 0.4 µM (active); with M14, 0.0577 µM (active); with SNB-78, 0.0959 µM (active); with SF-268, 0.0578 µM (active). Moreover, the GI50 in the experiment with U-251 was 0.0745 µM (active); in the experiment on NCI-H226, 0.0802 µM (active); in the experiment with EKVX, 0.0679 µM (active); in the experiment on NCI-H23, 0.0655 µM (active); in the experiment on SK-OV-3, 0.0861 µM (active); with HOP-18, 0.0841 µM (active). In addition, the GI50 in the experiment on HT-29 is > 0.4 µM (active); in the experiment with SK-MEL-2, 0.0838 µM (active).
For `N=C(N)Nc1ncccc1[N+](=O)[O-]`, the GI50 in the experiment with XF498 was > 100 µM (inactive); in the experiment with MCF7, 25.7 µM (inactive); in the experiment on SNB-78 it was > 100 µM (inactive); in the experiment on SF-268, 74.6 µM (inactive); in the experiment on DMS-114, 15.8 µM (inactive); in the experiment with U-251, > 31.6 µM (inactive). Besides, the GI50 in the experiment with NCI-H226 is > 100 µM (inactive); in the experiment on NCI-H23, > 100 µM (inactive); with SK-OV-3 it was > 100 µM (inactive); in the experiment on HOP-18, > 100 µM (inactive); in the experiment with HT-29, 40.6 µM (inactive); in the experiment with SK-MEL-2, > 100 µM (inactive). Besides, the values for the GI50 with SK-MEL-5 and in the experiment on NCI/ADR-RES were 38.9 µM (inactive) and > 100 µM (inactive), respectively.
With `CCCCCCCCCCOC(=O)NCCC`, the GI50 in the experiment on M19-MEL is 34.5 µM (inactive); in the experiment on LXFL 529, 38 µM (inactive); in the experiment on XF498, 18.2 µM (inactive); with M14, 29.4 µM (inactive); in the experiment on SF-268, 29.1 µM (inactive); in the experiment on U-251, 24.9 µM (inactive). The GI50 in the experiment on EKVX was 25.9 µM (inactive); with NCI-H23 it was 33.1 µM (inactive); in the experiment with SK-OV-3, 54.8 µM (inactive); in the experiment with HOP-18, 26.7 µM (inactive); in the experiment with HT-29, 21.4 µM (inactive); in the experiment with SK-MEL-2, 16.7 µM (inactive). Moreover, the GI50 with SK-MEL-5 is 23.9 µM (inactive).
As to `CCOC(=O)/C=C(\C)c1ccc(OC)cc1`, the GI50 with LXFL 529, with XF498, in the experiment on M14, in the experiment on SNB-78, in the experiment on SF-268 and in the experiment on DMS-114 was > 100 µM (inactive) throughout. The GI50 in the experiment on U-251, in the experiment on SR, with NCI-H226, in the experiment on EKVX, in the experiment with NCI-H23 and with HOP-18 was > 100 µM (inactive) throughout. The GI50 in the experiment on HT-29 is 88.9 µM (inactive); in the experiment with SK-MEL-2, > 100 µM (inactive); in the experiment on SK-MEL-5, > 100 µM (inactive).
With `N/C(=C\c1ccc(/C=C(\NC(=O)c2ccccc2)c2nc3c([nH]2)C(=O)c2ccccc2C3=O)cc1)c1nc2c([nH]1)C(=O)c1ccccc1C2=O`, the GI50 was 10.7 µM (inactive) with LXFL 529; 11.6 µM (inactive) in the experiment on XF498; 16.2 µM (inactive) with M14; 20.6 µM (inactive) in the experiment with SNB-78; 8.47 µM (inactive) with SF-268; 7.55 µM (inactive) in the experiment with DMS-114. In addition, the GI50 was 14.3 µM (inactive) with U-251; 11.5 µM (inactive) in the experiment with NCI-H226; 23.3 µM (inactive) with EKVX; 14.3 µM (inactive) in the experiment on NCI-H23; 24.1 µM (inactive) in the experiment with SK-OV-3; 14.3 µM (inactive) in the experiment with HOP-18. The GI50 with HT-29 was 14.7 µM (inactive); with SK-MEL-5, 16.5 µM (inactive).
Regarding `COc1ccc(/C=N/N=C(N)N)c(C(=O)O)c1OC`, the GI50 in the experiment with LXFL 529, in the experiment with M14, in the experiment on SNB-78, in the experiment on SF-268, in the experiment with DMS-114 and with U-251 was > 100 µM (inactive) in each case. Besides, the GI50 in the experiment with EKVX, in the experiment on NCI-H23, with SK-OV-3, with HOP-18, with HT-29 and in the experiment with SK-MEL-5 was > 100 µM (inactive) in each case.
On to `CCOC(=O)/C(C#N)=C1/SC(C(=O)N/N=C/c2ccc(OC)cc2)=C(N)N1c1ccccc1`, for which the GI50 was > 100 µM (inactive) in the experiment on M19-MEL; 60.4 µM (inactive) in the experiment with LXFL 529; 97.5 µM (inactive) with SF-268; > 100 µM (inactive) with U-251; > 100 µM (inactive) with SR; > 100 µM (inactive) in the experiment with NCI-H226. Further, the GI50 with NCI-H23 is > 100 µM (inactive); in the experiment on SK-OV-3, 32.4 µM (inactive); in the experiment with HOP-18, > 100 µM (inactive); with HT-29, 31.3 µM (inactive); with SK-MEL-5, 39.4 µM (inactive).
